Earlier results on two molecules are cited in PMC12294558, “New 1,2,4-Triazole Derivatives with a N-Mannich Base Structure Based on a 4,6-Dimethylpyridine Scaffold as Anticancer Agents: Design, Synthesis, Biological Evaluation, and Molecular Modeling” (International Journal of Molecular Sciences, 2025).

One may read the IC50 as the concentration that inhibits the measured activity by half.

The subject of one data set is NUGC cell line. More on the design: method as in PMID 25948330. The following applies: cited from earlier work.
Another data set concerns OVCAR-3 cell line. More on the design: method as in PMID 33482607. The following applies: cited from earlier work.

Take `CN1CCN(Cn2nc(-c3ccncc3)n(-c3ccc(Br)cc3)c2=S)CC1` [VIII]: in the data set with NUGC cell line, the IC50 is 21 nM.
For the molecule `O=C(O)c1cn(C2CC2)c2cc(N3CCN(Cc4c(O)ccc5ccccc45)CC3)c(F)cc2c1=O` [V], the IC50 in the data set with OVCAR-3 cell line was 970 nM.
